Measurements from ChEMBL document CHEMBL5625161, “Pharmacological activity and mechanism of pyrazines” (Eur J Med Chem, 2023).
In brackets after ≈: the same amount, converted by molar mass.

Tests used:
[1] = tested on: L1210; assay: Antiproliferative activity against mouse L1210 cells assessed as reduction in cell viability measured after 3 to 4 days by MTT assay; type: functional, cell-based
[2] = tested on: CCRF-CEM; assay: Antiproliferative activity against human CEM cells assessed as reduction in cell viability measured after 3 to 4 days by MTT assay; type: functional, cell-based
[3] = tested on: HeLa; assay: Antiproliferative activity against human HeLa cells assessed as reduction in cell viability measured after 3 to 4 days by MTT assay; type: functional, cell-based
[4] = tested on: A549; assay: Antiproliferative activity against human A549 cells assessed as reduction in cell viability measured after 3 to 4 days by MTT assay; type: functional, cell-based
[5] = tested on: HepG2; assay: Antiproliferative activity against human HepG2 cells assessed as reduction in cell viability measured after 3 to 4 days by MTT assay; type: functional, cell-based
[6] = tested on: SW-620; assay: Antiproliferative activity against human SW-620 cells assessed as reduction in cell growth measured after 3 to 4 days by MTT assay; type: functional, cell-based
[7] = tested on: MCF7; assay: Antiproliferative activity against human MCF7 cells assessed as reduction in cell growth measured after 3 to 4 days by MTT assay; type: functional, cell-based
[8] = Antiproliferative activity against human Molt 4/C8 cells assessed as reduction in cell growth measured after 3 to 4 days by MTT assay; type: functional, cell-based; details: Molt4/C8
[9] = Antiproliferative activity against human WI-38 cells assessed as reduction in cell growth measured after 3 to 4 days by MTT assay; type: toxicity, cell-based
[10] = tested on: DU-145; assay: Antiproliferative activity against human DU-145 cells assessed as reduction in cell growth incubated for 48 hrs by CCK-8 assay; type: functional, cell-based; details: DU-145, 48 h
[11] = tested on: MCF7; assay: Antiproliferative activity against human MCF7 cells assessed as reduction in cell growth incubated for 48 hrs by CCK-8 assay; type: functional, cell-based; details: MCF7, 48 h
[12] = tested on: NCI-H460; assay: Antiproliferative activity against human NCI-H460 cells assessed as reduction in cell growth incubated for 48 hrs by CCK-8 assay; type: functional, cell-based; details: NCI-H460, 48 h
[13] = tested on: BJ; assay: Cytotoxicity against human BJ cells assessed as cell growth inhibition measured after 72 hrs by Celltiter-Glo assay; type: functional, cell-based
[14] = tested on: LN-229; assay: Cytotoxicity against human LN-229 cells assessed as reduction in cell growth incubated for 72 hrs by Celltiter-Glo assay; type: functional, cell-based; details: LN-229, 72 h
[15] = Antiproliferative activity against mouse Ba/F3 EML4-ALK cells assessed as inhibition of cell growth; type: functional, cell-based
[16] = tested on: MCF7; assay: Cytotoxicity against human MCF7 cells assessed as reduction in cell growth measured after 48 hrs by MTT assay; type: functional, cell-based; details: MCF7, 48 h
[17] = Cytotoxicity against human MRC5 cells assessed as reduction in cell growth measured after 48 hrs by MTT assay; type: toxicity, cell-based
[18] = tested on: MCF7; assay: Cytotoxicity against human MCF7 cells assessed as cell growth inhibition measured after 48 hrs by MTT assay; type: functional, cell-based; details: MCF7, 48 h
[19] = tested on: HCT-116; assay: Cytotoxicity against human HCT-116 cells assessed as cell growth inhibition measured after 48 hrs by MTT assay; type: functional, cell-based; details: HCT-116, 48 h
[20] = tested on: K562; assay: Cytotoxicity against human K562 cells assessed as cell growth inhibition measured after 48 hrs by MTT assay; type: functional, cell-based; details: K562, 48 h
[21] = target: Aldo-keto reductase family 1 member B1 (Homo sapiens, UniProt P15121); assay: Inhibition of human recombinant ALDR1
[22] = tested on: SGC-7901; assay: Antiproliferative activity against human SGC-7901 cells assessed as reduction in cell viability measured after 72 hrs by MTT assay; type: functional, cell-based; details: SGC-7901, 72 h
[23] = Antiproliferative activity against human PaTu8988 cells assessed as reduction in cell viability measured after 72 hrs by MTT assay; type: functional, cell-based; details: PaTu8988, 72 h
[24] = tested on: SMMC-7721; assay: Antiproliferative activity against human SMMC-7721 cells assessed as reduction in cell viability measured after 72 hrs by MTT assay; type: functional, cell-based; details: SMMC-7721, 72 h
[25] = tested on: Plasmodium falciparum; assay: Antiplasmodial activity against chloroquine-sensitive Plasmodium falciparum NF54 assessed as reduction in parasite growth; type: functional, organism-based
[26] = tested on: Mycobacterium tuberculosis; assay: Antimycobacterial activity against Mycobacterium tuberculosis H37Rv assessed as inhibition of bacterial growth by microplate alamar blue assay; type: functional
[27] = tested on: PC-9; assay: Antiproliferative activity against human PC-9 cells assessed as reduction in cell growth incubated for 72 hrs by MTT assay; type: functional, cell-based; details: PC-9, 72 h
[28] = tested on: PC-9/ER; assay: Antiproliferative activity against human PC-9/ER cells assessed as inhibition of cell growth incubated for 48 hrs by MTT assay; type: functional
[29] = tested on: Human coronavirus 229E; assay: Antiviral activity against Human coronavirus 229E cells assessed as inhibition of virus-induced cytopathic effect by crystal violet staining based analysis; type: functional, organism-based
[30] = tested on: KG-1; assay: Antiproliferative activity against human KG-1 cells assessed as reduction in cell viability incubated for 72 hrs by MTT assay; type: functional, cell-based; details: KG-1, 72 h
[31] = tested on: A549; assay: Antiproliferative activity against human A549 cells assessed as inhibition of cell growth at 10 uM relative to control; type: functional; set-up: scale not given: the % may be the effect or the level left
[32] = tested on: HeLa; assay: Antitumor activity against human HeLa cells assessed as cell growth inhibition incubated for 72 hrs by MTT assay; type: functional, cell-based
[33] = tested on: MGC-803; assay: Antiproliferative activity against human MGC-803 cells assessed as inhibition of cell growth incubated for 72 hrs by MTT assay; type: functional, cell-based; details: MGC-803, 72 h
[34] = tested on: T-24; assay: Antiproliferative activity against human T-24 cells assessed as inhibition of cell growth incubated for 72 hrs by MTT assay; type: functional, cell-based; details: T-24, 72 h
[35] = tested on: L02; assay: Antiproliferative activity against human HL7702 cells assessed as cell growth inhibition measured after 72 hrs by MTT assay; type: functional, cell-based; details: L02, 72 h
[36] = Antiproliferative activity against human WI-38 cells assessed as cell growth inhibition measured after 72 hrs by MTT assay; type: toxicity, cell-based

With O=C(Nc1ccc(Br)cc1)Nc1ccc(Oc2cnc(C(=O)NC3CCCC3)cn2)cc1 the IC50 [1] was 87 µM, the IC50 [2] was > 250 µM and the IC50 [3] was 0.6 µM. It also gave an IC50 [4] of 0.9 µM, an IC50 [5] of 0.7 µM and an IC50 [6] of 39.6 µM. For the same compound, the IC50 [7] was > 250 µM, the IC50 [8] was > 250 µM and the IC50 [9] was > 100 µM.
With C[C@@H]1[C@]2(O[C@H]3C=C4[C@@H]5CC[C@H]6Cc7nc8c(nc7C[C@]6(C)[C@H]5C[C@@H](O)[C@]4(C)[C@]31O)C[C@@H]1CC[C@H]3C4=CC[C@@H]5[C@H](C)[C@@]6(OC[C@]45C(=O)C[C@@H]3[C@@]1(C)C8)OC(C)(C)C[C@H]6O)O[C@](C)(CO)C[C@H]2O [CEPHALOSTATIN 1] the IC50 [10] was 0.00011 µM, the IC50 [11] was 99 pM and the IC50 [12] was 44 pM.
N#Cc1cncc(Cl)n1 gave an IC50 [13] of 95.7 µM and an IC50 [14] of 18.2 µM.
In the case of CCc1nc(C(N)=O)c(Nc2ccc3c(c2)CCN(C2CC=CC2)CC3)nc1NC1CCOCC1, the IC50 [15] is reported as 0.0012 µM.
With C/C(=N\NC(=S)N1CCCCC1)c1cnccn1 the IC50 [16] was 3.82 µM and the IC50 at 48 h [17] was > 60 µM.
Work on c1ccc(CNc2c(-c3ccncc3)nc3cnccn23)cc1 yielded an IC50 [18] of 6.66 µM, an IC50 [19] of 6.66 µM and an IC50 [20] of 6.66 µM.
Compound O=C(c1ccc(O)cc1)c1ncc(-c2ccc(O)cc2)nc1C(=O)c1ccc(O)cc1 has an IC50 [21] of 6.47 µM.
Compound COc1cccc(/C=N/C(=O)c2cnccn2)c1O has an IC50 [22] of 0.3 µM, an IC50 [23] of 0.3 µM and an IC50 [24] of 0.3 µM.
O=C(NCCNc1ccnc2cc(Cl)ccc12)c1cnccn1 gave an IC50 [25] of 0.647 µM and an MIC99 [26] of 320 µM (≈ 105 µg/mL).
In the case of c1cc2cc(-c3cnc4nc(-c5ccc6c(c5)OCCO6)cnc4c3)ccc2[nH]1, the IC50 [27] is reported as 0.09 µM and the IC50 [28] is reported as 0.15 µM.
Compound c1cc(-c2nc3cnccn3c2NC2CCCCC2)ccn1 has an IC50 [29] of 57 µM.
O=S(=O)(c1cn(CCF)cn1)n1ccc2ncc(-c3cn[nH]c3)nc21 gave an IC50 [30] of 0.0291 µM.
Cc1cc(=O)oc2cc(Oc3nc(-c4ccc(Cl)cc4)cn4c(-c5ccc(Cl)cc5)cnc34)ccc12 showed an Activity [31] of 90.12%.
For Clc1ccc(-c2nc3oc4ccccc4c3nc2-c2ccc(Cl)cc2)cc1, the IC50 [32] was 10 µM, the IC50 [33] was 20.2 µM and the IC50 [34] was 12.5 µM. For the same compound, the IC50 [35] was 25.4 µM and the IC50 at 72 h [36] was > 40 µM.
